Assay [1] deals with T1, Bifunctional dihydrofolate reductase-thymidylate synthase [1-238,S58R,S117N] (Plasmodium vivax, UniProt O02604, S117N/S58R).
T1 construct: 1-238
As to the kind of experiment: Inhibitor Screening Using Bacterial System (IC50) and Measurement of Inhibition Constant (Ki). The method, then: (§1) Nineteen Pyr analogs were studied for their inhibition activity against cells expressing either WT or SP21 mutant PvDHFR-TS. The assays were conducted with 96-well microplates by monitoring the growth at an optical density of 595 nm (A595). The average A595 of control culture omitting Pyr analogs was scored as 100% growth, and the average readings for the cultures at each drug concentration were divided by this value to obtain relative growth values. The concentrations that inhibited 50% bacterial growth (IC50s) were determined from dose-response curves. Inhibition constants (Ki) of antifolates were calculated using a nonlinear least square fit of the data to the Michaelis-Menten equation, assuming the inhibitor binds competitively to the enzyme active site.

In assay [2] the target is Bifunctional dihydrofolate reductase-thymidylate synthase (Plasmodium vivax, UniProt O02604). The assay is described as above. The note with it: pH 7; 25 °C. The method, then: as §1

Each structure is given as a SMILES string.

Bifunctional dihydrofolate reductase-thymidylate synthase, sequence (O02604 whole entry): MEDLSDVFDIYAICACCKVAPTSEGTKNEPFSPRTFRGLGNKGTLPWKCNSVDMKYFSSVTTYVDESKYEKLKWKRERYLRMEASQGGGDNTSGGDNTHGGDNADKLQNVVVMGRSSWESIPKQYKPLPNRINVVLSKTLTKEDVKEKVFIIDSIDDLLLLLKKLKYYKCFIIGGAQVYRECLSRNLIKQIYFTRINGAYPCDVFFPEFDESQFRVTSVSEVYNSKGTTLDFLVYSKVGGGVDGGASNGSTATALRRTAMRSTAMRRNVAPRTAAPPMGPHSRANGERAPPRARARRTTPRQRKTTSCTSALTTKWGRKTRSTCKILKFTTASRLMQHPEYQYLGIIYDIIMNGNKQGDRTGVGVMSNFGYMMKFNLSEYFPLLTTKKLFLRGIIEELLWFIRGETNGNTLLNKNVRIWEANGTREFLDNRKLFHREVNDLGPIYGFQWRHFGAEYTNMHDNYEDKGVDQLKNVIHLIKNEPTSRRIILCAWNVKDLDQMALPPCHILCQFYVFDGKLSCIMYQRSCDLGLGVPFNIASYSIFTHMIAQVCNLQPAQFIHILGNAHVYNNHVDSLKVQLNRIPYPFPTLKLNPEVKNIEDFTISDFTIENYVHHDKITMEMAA
T1 sequence (O02604 1-238, looked up, stated change not applied): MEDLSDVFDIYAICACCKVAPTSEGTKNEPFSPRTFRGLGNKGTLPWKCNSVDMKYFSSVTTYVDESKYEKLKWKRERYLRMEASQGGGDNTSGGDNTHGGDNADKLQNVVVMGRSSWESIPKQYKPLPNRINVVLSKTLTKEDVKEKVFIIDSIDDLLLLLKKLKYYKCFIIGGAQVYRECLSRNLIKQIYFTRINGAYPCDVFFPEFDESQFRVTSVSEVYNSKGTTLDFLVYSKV

A word on the IC50: it is the concentration at which inhibition is half-maximal. A higher IC50 goes with a need for much substance. As usually defined, the Ki is a dissociation constant, usually derived from enzyme kinetics or from competition with a known ligand. Read a low Ki as tighter binding. For the compound `Cc1nc(N)nc(N)c1-c1ccccc1`, in assay [1], the half-maximal inhibitory concentration (IC50) amounted to 12800 nM and affinity was put at a Ki of 22.5 nM. Moreover, in assay [2], the IC50 worked out at 11300 nM and affinity was put at a Ki of 4.18 nM.

For the compound `Nc1nc(N)c(-c2cccc(Cl)c2)c(CCCc2ccccc2)n1`, in assay [1], the IC50 amounted to 13900 nM and the inhibitory constant (Ki) worked out at 1.32 nM. In assay [2], this compound returned a 50% inhibitory concentration (IC50) of 2380 nM and a Ki of 0.77 nM.

On to `Nc1nc(N)c(-c2cccc(Cl)c2)c(CCOCCCOc2ccccc2)n1` [5-(3-chlorophenyl)-6-[2-(3-phenoxypropoxy)ethyl]pyrimidine-2,4-diamine], for which the IC50 in assay [1] was 14200 nM; in assay [2], 2270 nM. Moreover, the inhibition constant (Ki) was 1.53 nM in assay [1] and 0.63 nM in assay [2].

Take `CCc1nc(N)nc(N)c1-c1ccccc1`: the figures for the IC50 in assay [1] and in assay [2] were 1520 nM and 1820 nM, respectively. In addition, the inhibitory constant (Ki) in assay [1] was 0.08 nM; in assay [2], 0.03 nM.

`CCCCCCc1nc(N)nc(N)c1-c1ccccc1` [6-hexyl-5-phenylpyrimidine-2,4-diamine]: the IC50 amounted to 3020 nM in assay [1] and 230 nM in assay [2]. Also, affinity in assay [1] was put at a Ki of 0.9 nM.

Turning to `COC(=O)CCCc1nc(N)nc(N)c1-c1ccc(Cl)cc1`, in assay [1], the IC50 is over 50000 nM and the inhibitory constant (Ki) came to 7.43 nM. In assay [2], this compound came in with a 50% inhibitory concentration (IC50) of 200 nM and an inhibitory constant (Ki) of 0.69 nM.

In assay [1], `CC(C)Cc1nc(N)nc(N)c1-c1ccc(Cl)cc1` [5-(4-chlorophenyl)-6-(2-methylpropyl)pyrimidine-2,4-diamine] had an IC50 of 18200 nM and an inhibition constant (Ki) of 28.1 nM. In assay [2], this compound showed an IC50 of 220 nM and a Ki of 1.4 nM.

In assay [1], `CCc1nc(N)nc(N)c1-c1ccc(Br)cc1` [5-(4-bromophenyl)-6-ethylpyrimidine-2,4-diamine] yielded an IC50 of 30000 nM and a Ki of 6.59 nM. Further, in assay [2], the IC50 amounted to 90 nM and the affinity corresponds to a Ki of 0.78 nM.

In assay [1], `Nc1ncc(-c2ccc(Cl)cc2)c(N)n1` [5-(4-chlorophenyl)pyrimidine-2,4-diamine] registered a concentration for half-maximal inhibition (IC50) of over 50000 nM and an inhibition constant (Ki) of 1080 nM. In assay [2], this compound showed a 50% inhibitory concentration (IC50) of 1520 nM and an inhibition constant (Ki) of 3.42 nM.

`CCCCCCCCCc1nc(N)nc(N)c1-c1ccc(Cl)cc1` [5-(4-chlorophenyl)-6-nonylpyrimidine-2,4-diamine]: the concentration for half-maximal inhibition (IC50) in assay [1] was over 50000 nM; in assay [2], 2200 nM. The Ki in assay [1] is 24.5 nM; in assay [2] it was 4.29 nM.

Turning to `CCc1nc(N)nc(N)c1-c1ccc(C(C)(C)C)cc1` [5-(4-tert-butylphenyl)-6-ethylpyrimidine-2,4-diamine], in assay [1], the IC50 is over 50000 nM and the affinity corresponds to a Ki of 47.5 nM. In assay [2], the midpoint of inhibition, the IC50, lay at 1760 nM and the Ki worked out at 1.14 nM.

In the case of `CCc1nc(N)nc(N)c1-c1ccc(OC)cc1`, in assay [1], the IC50 was over 50000 nM and the inhibition constant Ki was 37.8 nM. In assay [2], this compound returned a 50% inhibitory concentration (IC50) of 350 nM and an inhibitory constant (Ki) of 1.01 nM.

With `CCc1nc(N)nc(N)c1-c1ccc(C)cc1` [6-ethyl-5-(4-methylphenyl)pyrimidine-2,4-diamine], the IC50 in assay [1] came to 12400 nM; in assay [2] it was 140 nM. Besides, the figures for the inhibition constant Ki in assay [1] and in assay [2] were 2.21 nM and 0.39 nM, respectively.

In assay [1], `Cc1nc(N)nc(N)c1-c1ccc(Cl)cc1` yielded a half-maximal inhibitory concentration (IC50) of over 50000 nM and an inhibition constant (Ki) of 63.4 nM. In assay [2], the IC50 was 1950 nM and the Ki came out at 0.78 nM.

In assay [1], `Cc1nc(N)nc(N)c1-c1cccc(Cl)c1` [5-(3-chlorophenyl)-6-methylpyrimidine-2,4-diamine] showed a 50% inhibitory concentration (IC50) of 1980 nM and an inhibition constant (Ki) of 1.19 nM. In assay [2], this compound returned a half-inhibitory concentration (IC50) of 2120 nM and a Ki of 0.69 nM.

As for `CCc1nc(N)nc(N)c1-c1ccc(Cl)cc1`, in assay [1], half-maximal inhibition (IC50) was put at 20000 nM and the affinity, expressed as Ki, was 3.04 nM. For the same compound, in assay [2], the IC50 came out at 180 nM and the inhibition constant Ki stood at 0.21 nM.

Regarding `CCc1nc(N)nc(N)c1-c1cccc(Cl)c1` [5-(3-chlorophenyl)-6-ethylpyrimidine-2,4-diamine], in assay [1], the IC50 is 300 nM and the Ki came out at 0.54 nM. In assay [2], the IC50 was found to be 360 nM and the affinity corresponds to a Ki of 0.31 nM.

In assay [1], `CCc1nc(N)nc(N)c1-c1ccc(Cl)c(Cl)c1` displayed a 50% inhibitory concentration (IC50) of 10500 nM and a Ki of 1.05 nM. Further, in assay [2], inhibition was half-maximal at 70 nM (IC50) and the affinity corresponds to a Ki of 0.52 nM.

In the case of `Nc1nc(N)c(-c2ccccc2)c(CCCc2ccccc2)n1`, in assay [1], the IC50 was 2760 nM and the affinity corresponds to a Ki of 0.81 nM. In assay [2], the half-maximal inhibitory concentration (IC50) is 800 nM and the Ki is 0.53 nM.

The record behind these values is BindingDB's records for doi:10.1128/AAC.00448-06 (National Center For Genetic Engineering and Biotechnology …, 2006).
